# In the supplement of paper PMC10307832:
# Assays:
# Assay in all cases: relative viability (nuclei count vs DMSO), 5 days (fraction); higher = more cells survive
# NCI-H1651 = test system: NCI-H1651
# Procedure, shortened: (§1)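 Lung cancer cell lines in 1536-well plates were dosed by pin tool the day after seeding, either with one drug alone or with a fixed anchor-drug dose plus five library-drug doses (not always all listed) in √10 steps. After 5 days, cells were fixed and their nuclei stained in one step (final 0.05% Triton X-100, 1% formaldehyde, 1 ug/ml Hoechst), then counted on 4× images. Relative viability is the nuclei count in treated wells divided by that in vehicle wells. Values are medians of duplicate plates.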
# NCI-H2405 = test system: NCI-H2405
# Procedure, shortened: as §1
# NCI-H1793 = test system: NCI-H1793
# Procedure, shortened: as §1
# LCLC-103H = test system: LCLC-103H
# Procedure, shortened: as §1
# ChaGo-K-1 = test system: ChaGo-K-1
# Procedure, shortened: as §1
# NCI-H1395 = test system: NCI-H1395
# Procedure, shortened: as §1
# NCI-H2087 = test system: NCI-H2087
# Procedure, shortened: as §1
# SK-MES-1 = test system: SK-MES-1
# Procedure, shortened: as §1
# NCI-H1563 = test system: NCI-H1563
# Procedure, shortened: as §1
# HCC-827 = test system: HCC-827
# Procedure, shortened: as §1
# NCI-H838 = test system: NCI-H838
# Procedure, shortened: as §1
# EPLC-272H = test system: EPLC-272H
# Procedure, shortened: as §1
# NCI-H520 = test system: NCI-H520
# Procedure, shortened: as §1
# NCI-H2085 = test system: NCI-H2085
# Procedure, shortened: as §1
# EMC-BAC-2 = test system: EMC-BAC-2
# Procedure, shortened: as §1
# LU99A = test system: LU99A
# Procedure, shortened: as §1
# COR-L23 = test system: COR-L23
# Procedure, shortened: as §1
# NCI-H2023 = test system: NCI-H2023
# Procedure, shortened: as §1
# NCI-H1944 = test system: NCI-H1944
# Procedure, shortened: as §1
# NCI-H650 = test system: NCI-H650
# Procedure, shortened: as §1
# H3255 = test system: H3255
# Procedure, shortened: as §1
smiles,measurement,setting,value
O=c1cc(-c2cccc3c2Sc2ccccc2S3)oc(N2CCOCC2)c1 + Cc1nc(Nc2ncc(C(=O)Nc3c(C)cccc3Cl)s2)cc(N2CCN(CCO)CC2)n1 [Dasatinib] (partner 0.075 µM),relative viability,NCI-H1651; first compound 0.08 µM,0.401
same,relative viability,NCI-H1651; first compound 0.253 µM,0.457
same,relative viability,NCI-H1651; first compound 0.8 µM,0.392
same,relative viability,NCI-H1651; first compound 2.53 µM,0.312
same,relative viability,NCI-H1651; first compound 8 µM,0.387
same,relative viability,NCI-H2405; first compound 0.08 µM,0.183
same,relative viability,NCI-H2405; first compound 0.253 µM,0.194
same,relative viability,NCI-H2405; first compound 0.8 µM,0.192
same,relative viability,NCI-H2405; first compound 2.53 µM,0.179
same,relative viability,NCI-H2405; first compound 8 µM,0.209
same,relative viability,NCI-H1793; first compound 0.08 µM,0.379
same,relative viability,NCI-H1793; first compound 0.253 µM,0.441
same,relative viability,NCI-H1793; first compound 0.8 µM,0.335
same,relative viability,NCI-H1793; first compound 2.53 µM,0.379
same,relative viability,NCI-H1793; first compound 8 µM,0.386
same,relative viability,LCLC-103H; first compound 0.08 µM,0.416
same,relative viability,LCLC-103H; first compound 0.253 µM,0.503
same,relative viability,LCLC-103H; first compound 0.8 µM,0.528
same,relative viability,LCLC-103H; first compound 2.53 µM,0.439
same,relative viability,LCLC-103H; first compound 8 µM,0.551
same,relative viability,ChaGo-K-1; first compound 0.08 µM,0.499
same,relative viability,ChaGo-K-1; first compound 0.253 µM,0.568
same,relative viability,ChaGo-K-1; first compound 0.8 µM,0.585
same,relative viability,ChaGo-K-1; first compound 2.53 µM,0.454
same,relative viability,ChaGo-K-1; first compound 8 µM,0.674
same,relative viability,NCI-H1395; first compound 0.08 µM,0.425
same,relative viability,NCI-H1395; first compound 0.253 µM,0.366
same,relative viability,NCI-H1395; first compound 0.8 µM,0.436
same,relative viability,NCI-H1395; first compound 2.53 µM,0.338
same,relative viability,NCI-H1395; first compound 8 µM,0.386
same,relative viability,NCI-H2087; first compound 0.08 µM,0.787
same,relative viability,NCI-H2087; first compound 0.253 µM,0.936
same,relative viability,NCI-H2087; first compound 0.8 µM,0.943
same,relative viability,NCI-H2087; first compound 2.53 µM,0.919
same,relative viability,NCI-H2087; first compound 8 µM,0.699
same,relative viability,SK-MES-1; first compound 0.08 µM,0.335
same,relative viability,SK-MES-1; first compound 0.253 µM,0.256
same,relative viability,SK-MES-1; first compound 0.8 µM,0.312
same,relative viability,SK-MES-1; first compound 2.53 µM,0.317
same,relative viability,SK-MES-1; first compound 8 µM,0.289
same,relative viability,NCI-H1563; first compound 0.08 µM,0.473
same,relative viability,NCI-H1563; first compound 0.253 µM,0.454
same,relative viability,NCI-H1563; first compound 0.8 µM,0.437
same,relative viability,NCI-H1563; first compound 2.53 µM,0.366
same,relative viability,NCI-H1563; first compound 8 µM,0.467
same,relative viability,HCC-827; first compound 0.08 µM,0.285
same,relative viability,HCC-827; first compound 0.253 µM,0.297
same,relative viability,HCC-827; first compound 0.8 µM,0.37
same,relative viability,HCC-827; first compound 2.53 µM,0.276
same,relative viability,HCC-827; first compound 8 µM,0.348
same,relative viability,NCI-H838; first compound 0.08 µM,0.273
same,relative viability,NCI-H838; first compound 0.253 µM,0.283
same,relative viability,NCI-H838; first compound 0.8 µM,0.276
same,relative viability,NCI-H838; first compound 2.53 µM,0.278
same,relative viability,NCI-H838; first compound 8 µM,0.273
same,relative viability,EPLC-272H; first compound 0.08 µM,0.331
same,relative viability,EPLC-272H; first compound 0.253 µM,0.397
same,relative viability,EPLC-272H; first compound 0.8 µM,0.399
same,relative viability,EPLC-272H; first compound 2.53 µM,0.306
same,relative viability,EPLC-272H; first compound 8 µM,0.347
same,relative viability,NCI-H520; first compound 0.08 µM,0.181
same,relative viability,NCI-H520; first compound 0.253 µM,0.258
same,relative viability,NCI-H520; first compound 0.8 µM,0.194
same,relative viability,NCI-H520; first compound 2.53 µM,0.172
same,relative viability,NCI-H520; first compound 8 µM,0.213
same,relative viability,NCI-H2085; first compound 0.08 µM,0.222
same,relative viability,NCI-H2085; first compound 0.253 µM,0.238
same,relative viability,NCI-H2085; first compound 0.8 µM,0.225
same,relative viability,NCI-H2085; first compound 2.53 µM,0.241
same,relative viability,NCI-H2085; first compound 8 µM,0.236
same,relative viability,EMC-BAC-2; first compound 0.08 µM,0.252
same,relative viability,EMC-BAC-2; first compound 0.253 µM,0.368
same,relative viability,EMC-BAC-2; first compound 0.8 µM,0.306
same,relative viability,EMC-BAC-2; first compound 2.53 µM,0.303
same,relative viability,EMC-BAC-2; first compound 8 µM,0.399
same,relative viability,LU99A; first compound 0.08 µM,0.759
same,relative viability,LU99A; first compound 0.253 µM,0.61
same,relative viability,LU99A; first compound 0.8 µM,0.587
same,relative viability,LU99A; first compound 2.53 µM,0.754
same,relative viability,LU99A; first compound 8 µM,0.631
same,relative viability,COR-L23; first compound 0.08 µM,0.564
same,relative viability,COR-L23; first compound 0.253 µM,0.589
same,relative viability,COR-L23; first compound 0.8 µM,0.571
same,relative viability,COR-L23; first compound 2.53 µM,0.58
same,relative viability,COR-L23; first compound 8 µM,0.504
same,relative viability,NCI-H2023; first compound 0.08 µM,0.537
same,relative viability,NCI-H2023; first compound 0.253 µM,0.679
same,relative viability,NCI-H2023; first compound 0.8 µM,0.498
same,relative viability,NCI-H2023; first compound 2.53 µM,0.48
same,relative viability,NCI-H2023; first compound 8 µM,0.405
same,relative viability,NCI-H1944; first compound 0.08 µM,0.21
same,relative viability,NCI-H1944; first compound 0.253 µM,0.223
same,relative viability,NCI-H1944; first compound 0.8 µM,0.207
same,relative viability,NCI-H1944; first compound 2.53 µM,0.176
same,relative viability,NCI-H1944; first compound 8 µM,0.24
same,relative viability,NCI-H650; first compound 0.08 µM,0.4
same,relative viability,NCI-H650; first compound 0.253 µM,0.412
same,relative viability,NCI-H650; first compound 0.8 µM,0.506
same,relative viability,NCI-H650; first compound 8 µM,0.488
same,relative viability,H3255; first compound 0.08 µM,0.334
same,relative viability,H3255; first compound 0.253 µM,0.288
same,relative viability,H3255; first compound 0.8 µM,0.363
same,relative viability,H3255; first compound 2.53 µM,0.342
same,relative viability,H3255; first compound 8 µM,0.556
